Experimental data as given in patent US7709634B2, “Amorphous form of rifaximin and processes for its preparation” (Apotex PharmAchem Inc., priority 2007, dated 2010).

Test: Polymorphic stability on exposure to ambient humidity, checked by PXRD
Format: physicochemical
Settings: exposure to ambient humidity for a period of 10 days
Excerpt: High yield of amorphous form of rifaximin is isolated by the processes of the present invention and it has high chemical purity and retains acceptable amounts of residual solvents.

polymorphic form after exposure to ambient humidity, as indicated by PXRD spectroscopy: did not change the polymorphic form
Compound: CO[C@H]1/C=C/O[C@@]2(C)Oc3c(C)c(O)c4c(O)c(c5c(nc6cc(C)ccn65)c4c3C2=O)NC(=O)/C(C)=C\C=C\[C@H](C)[C@H](O)[C@@H](C)[C@@H](O)[C@@H](C)[C@H](OC(C)=O)[C@@H]1C [amorphous form of rifaximin, (2S,16Z,18E,20S,21S,22R,23R,24R,25S,26S,27S,28E)-5,6,21,23,25-pentahydroxy-27-methoxy-2,4,11,16,20,22,24,26-octamethyl-2,7-(epoxypentadeca-[1,11,13]trienimino)benzofuro[4,5-e]pyrido[1,2-α]-benzimidazole-1,15(2H)-dione,25-acetate]
